In US20230257364A1, “PYRIDAZINONE-BASED COMPOUNDS AS AXL, C-MET, AND MER INHIBITORS AND METHODS OF USE THEREOF” (CMG Pharmaceutical Co., Ltd., priority 2022, published 2023):

Tests used:
Assay type in all cases: biochemical
C-MET = C-MET (Homo sapiens, UniProt P08581); assay: Enzymatic kinase assay (ADP-GLO), C-MET; settings: 10 μM ATP, poly (Glu4, Tyr1) substrate, 60 min room temperature, luminescence; read-out: Enzymatic assay IC50 (nM) C-MET
Experimental: (§1) This example illustrates an enzymatic assay to determine the inhibitory activity of exemplary compounds of Formula (I) in an aspect of the invention.
All the kinase reactions were performed in 5 μL using tyrosine kinase buffer with 0.2 μg/μL poly (Glu4, Tyr1) substrate, 10 μM ATP, serial dilution of the inhibitor, and incubated at room temperature for 60 min. After the indicated incubation times, 5 μL ADP-GLO™ reagent (Promega, Madison, Wis.) was added to the reactions and the plate was incubated at room temperature for 40 min. […] All 384-well assay plates were read using a GLOMAX™ Discover Microplate Luminometer from Promega (Madison, Wis.). To plot, analyze the data and calculate all kinase reaction biochemical values, both Microsoft Excel and Prism from GraphPad 7 Software (La Jolla, Calif.) were used.

AXL = target: T1, AXL (Homo sapiens, UniProt P30530); assay: Enzymatic kinase assay (ADP-GLO), AXL; settings: 10 μM ATP, poly (Glu4, Tyr1) substrate, 60 min room temperature, luminescence
T1 sequence (P30530 26-894): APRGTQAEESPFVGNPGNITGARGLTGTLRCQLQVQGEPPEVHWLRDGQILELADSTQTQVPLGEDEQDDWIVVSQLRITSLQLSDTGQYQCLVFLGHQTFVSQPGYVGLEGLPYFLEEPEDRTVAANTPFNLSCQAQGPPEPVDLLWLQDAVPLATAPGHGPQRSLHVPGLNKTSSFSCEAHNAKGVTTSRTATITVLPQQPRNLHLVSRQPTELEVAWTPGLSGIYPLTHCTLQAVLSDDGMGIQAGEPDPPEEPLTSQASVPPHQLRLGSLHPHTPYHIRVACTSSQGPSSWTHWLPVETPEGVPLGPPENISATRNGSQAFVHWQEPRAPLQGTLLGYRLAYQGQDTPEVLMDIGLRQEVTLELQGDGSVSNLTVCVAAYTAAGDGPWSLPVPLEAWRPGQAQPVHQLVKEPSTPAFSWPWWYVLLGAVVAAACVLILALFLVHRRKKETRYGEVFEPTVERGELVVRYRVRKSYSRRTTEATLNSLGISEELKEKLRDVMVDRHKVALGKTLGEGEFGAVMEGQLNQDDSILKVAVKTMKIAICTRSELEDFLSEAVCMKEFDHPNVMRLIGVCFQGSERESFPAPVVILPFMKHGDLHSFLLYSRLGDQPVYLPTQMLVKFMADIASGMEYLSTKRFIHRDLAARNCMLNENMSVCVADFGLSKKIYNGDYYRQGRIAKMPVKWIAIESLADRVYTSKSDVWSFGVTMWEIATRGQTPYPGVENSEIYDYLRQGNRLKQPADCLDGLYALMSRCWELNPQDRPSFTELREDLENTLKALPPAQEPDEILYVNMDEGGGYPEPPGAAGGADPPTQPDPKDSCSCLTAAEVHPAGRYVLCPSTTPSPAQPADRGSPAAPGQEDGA
Experimental: as §1
(§2) All the kinase reactions were performed in 5 μL using tyrosine kinase buffer with 0.2 μg/μL poly (Glu4, Tyr1) substrate, 10 μM ATP, serial dilution of the inhibitor, and incubated at room temperature for 60 min. After the indicated incubation times, 5 μL ADP-GLO™ reagent (Promega, Madison, Wis.) was added to the reactions and the plate was incubated at room temperature for 40 min. Then, 10 μL of kinase detection reagent was added and after an incubation time of 40 min, luminescence was recorded and IC50 values were determined (Table 1). All 384-well assay plates were read using a GLOMAX™ Discover Microplate Luminometer from Promega (Madison, Wis.). To plot, analyze the data and calculate all kinase reaction biochemical values, both Microsoft Excel and Prism from GraphPad 7 Software (La Jolla, Calif.) were used.

MER = target: T2, MER (Homo sapiens, UniProt Q12866); assay: Enzymatic kinase assay (ADP-GLO), MER; settings: 10 μM ATP, poly (Glu4, Tyr1) substrate, 60 min room temperature, luminescence
T2 sequence (Q12866 21-999): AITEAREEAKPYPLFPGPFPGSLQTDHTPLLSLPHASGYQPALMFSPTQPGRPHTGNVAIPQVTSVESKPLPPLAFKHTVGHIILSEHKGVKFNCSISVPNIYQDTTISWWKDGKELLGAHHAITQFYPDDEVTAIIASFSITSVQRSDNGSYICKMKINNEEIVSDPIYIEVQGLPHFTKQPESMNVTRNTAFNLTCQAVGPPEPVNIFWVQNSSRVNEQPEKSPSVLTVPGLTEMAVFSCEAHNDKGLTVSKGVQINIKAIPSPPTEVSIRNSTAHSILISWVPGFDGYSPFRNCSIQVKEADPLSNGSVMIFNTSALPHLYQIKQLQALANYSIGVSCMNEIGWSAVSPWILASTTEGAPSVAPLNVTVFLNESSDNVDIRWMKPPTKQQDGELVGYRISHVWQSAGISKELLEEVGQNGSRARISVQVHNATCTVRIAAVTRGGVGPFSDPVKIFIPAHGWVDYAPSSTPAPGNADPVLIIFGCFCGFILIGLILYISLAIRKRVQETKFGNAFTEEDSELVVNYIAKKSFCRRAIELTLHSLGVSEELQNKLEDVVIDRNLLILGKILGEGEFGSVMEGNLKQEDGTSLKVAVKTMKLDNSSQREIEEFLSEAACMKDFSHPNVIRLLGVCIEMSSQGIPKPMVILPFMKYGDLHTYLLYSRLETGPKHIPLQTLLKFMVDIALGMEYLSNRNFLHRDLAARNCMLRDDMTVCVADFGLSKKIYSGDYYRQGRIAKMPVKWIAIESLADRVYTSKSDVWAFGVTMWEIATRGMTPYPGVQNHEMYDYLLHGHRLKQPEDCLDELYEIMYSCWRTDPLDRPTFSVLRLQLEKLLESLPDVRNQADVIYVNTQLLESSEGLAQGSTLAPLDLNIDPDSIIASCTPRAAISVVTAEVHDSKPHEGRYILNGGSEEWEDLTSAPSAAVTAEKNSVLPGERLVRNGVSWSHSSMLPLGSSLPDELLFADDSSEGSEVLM
Experimental: as §1, §2

Chain of C-MET (P08581 25-1390): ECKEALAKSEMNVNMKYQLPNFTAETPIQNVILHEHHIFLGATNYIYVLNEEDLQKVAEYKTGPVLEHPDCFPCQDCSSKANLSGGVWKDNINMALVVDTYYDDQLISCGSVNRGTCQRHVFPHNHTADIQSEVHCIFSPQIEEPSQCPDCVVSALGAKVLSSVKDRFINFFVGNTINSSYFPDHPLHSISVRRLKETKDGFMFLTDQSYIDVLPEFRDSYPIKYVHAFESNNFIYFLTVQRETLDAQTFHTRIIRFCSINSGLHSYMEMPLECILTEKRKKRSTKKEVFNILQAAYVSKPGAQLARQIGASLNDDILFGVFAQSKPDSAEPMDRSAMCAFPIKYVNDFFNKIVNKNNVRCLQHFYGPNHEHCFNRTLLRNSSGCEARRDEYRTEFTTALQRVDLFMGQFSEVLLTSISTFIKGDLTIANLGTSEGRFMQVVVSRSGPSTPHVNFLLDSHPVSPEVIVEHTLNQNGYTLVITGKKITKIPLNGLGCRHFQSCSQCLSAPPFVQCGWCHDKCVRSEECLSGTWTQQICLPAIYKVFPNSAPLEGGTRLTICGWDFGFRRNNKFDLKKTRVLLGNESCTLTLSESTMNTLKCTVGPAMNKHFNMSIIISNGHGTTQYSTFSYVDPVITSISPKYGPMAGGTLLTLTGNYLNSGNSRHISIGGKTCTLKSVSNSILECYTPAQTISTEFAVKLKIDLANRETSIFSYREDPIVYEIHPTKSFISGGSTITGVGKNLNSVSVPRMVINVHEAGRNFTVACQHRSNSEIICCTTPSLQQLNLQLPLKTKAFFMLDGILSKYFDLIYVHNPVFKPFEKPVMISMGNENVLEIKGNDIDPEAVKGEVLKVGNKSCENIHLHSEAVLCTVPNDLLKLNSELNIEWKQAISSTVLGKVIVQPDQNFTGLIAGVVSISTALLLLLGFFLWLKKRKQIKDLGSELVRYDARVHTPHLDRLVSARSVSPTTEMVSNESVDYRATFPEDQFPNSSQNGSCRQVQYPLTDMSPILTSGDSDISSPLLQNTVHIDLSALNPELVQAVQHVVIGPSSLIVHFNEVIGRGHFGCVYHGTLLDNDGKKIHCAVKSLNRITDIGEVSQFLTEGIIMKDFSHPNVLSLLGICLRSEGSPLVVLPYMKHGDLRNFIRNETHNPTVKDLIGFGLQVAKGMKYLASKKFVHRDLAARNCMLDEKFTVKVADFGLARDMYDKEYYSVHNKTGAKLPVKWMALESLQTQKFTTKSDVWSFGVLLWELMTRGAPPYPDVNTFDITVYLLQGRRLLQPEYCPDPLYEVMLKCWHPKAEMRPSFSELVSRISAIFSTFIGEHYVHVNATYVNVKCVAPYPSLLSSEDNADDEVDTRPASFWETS

| Structure (SMILES) | IC50 (C-MET) [nM] | IC50 (AXL) [nM] | IC50 (MER) [nM] |
| --- | --- | --- | --- |
| Nc1nccc(Oc2ccc(NC(=O)c3ccnn(-c4ccc(F)cc4)c3=O)cc2F)c1Cl [Example 1, N-(4-(2-amino-3-chloropyridin-4-yloxy)-3-fluorophenyl)-2-(4-fluorophenyl)-3-oxo-2,3-dihydropyridazine-4-carboxamide] | < 1000 | < 1000 | < 1000 |
| Nc1nccc(Oc2ccc(NC(=O)c3ccnn(-c4ccc(F)cc4)c3=O)cc2F)c1C#CC(=O)N1CCOCC1 [Example 2, N-(4-(2-amino-3-(3-morpholino-3-oxoprop-1-ynyl)pyridin-4-yloxy)-3-fluorophenyl)-2-(4-fluorophenyl)-3-oxo-2,3-dihydropyridazine-4-carboxamide] | < 1000 | < 100 | < 10 |
| N#Cc1c(Oc2ccc(NC(=O)c3ccnn(-c4ccc(F)cc4)c3=O)cc2F)ccnc1N [Example 5] | < 10 | < 100 | < 1000 |
| Nc1nccc(Oc2ccc(NC(=O)c3ccnn(-c4ccc(F)cc4)c3=O)cc2F)c1/C=C/C(=O)N1CCNCC1 [Example 7, (E)-N-(4-(2-amino-3-(3-oxo-3-(piperazin-1-yl)prop-1-enyl)pyridin-4-yloxy)-3-fluorophenyl)-2-(4-fluorophenyl)-3-oxo-2,3-dihydropyridazine-4-carboxamide] | < 1000 | < 1000 | < 1000 |
| Nc1nccc(Oc2ccc(NC(=O)c3ccnn(-c4ccc(F)cc4)c3=O)cc2F)c1C#CCCN1CCOCC1 [Example 8, N-(4-(2-amino-3-(4-morpholinobut-1-ynyl)pyridin-4-yloxy)-3-fluorophenyl)-2-(4-fluorophenyl)-3-oxo-2,3-dihydropyridazine-4-carboxamide] | < 1000 | < 100 | < 1000 |
| Nc1nccc(Oc2ccc(NC(=O)c3ccnn(-c4ccc(F)cc4)c3=O)cc2F)c1C#CC(=O)N1CCNCC1 [Example 13, N-(4-(2-amino-3-(3-oxo-3-(piperazin-1-yl)prop-1-ynyl)pyridin-4-yloxy)-3-fluorophenyl)-2-(4-fluorophenyl)-3-oxo-2,3-dihydropyridazine-4-carboxamide] | < 100 | < 100 | < 100 |
| Nc1nccc(Oc2ccc(NC(=O)c3cccn(-c4ccc(F)cc4)c3=O)cc2F)c1C#CC(=O)N1CCNCC1 [Example 15, N-(4-(2-amino-3-(3-oxo-3-(piperazin-1-yl)prop-1-ynyl)pyridin-4-yloxy)-3-fluorophenyl)-1-(4-fluorophenyl)-2-oxo-1,2-dihydropyridine-3-carboxamide] | < 100 | < 100 | < 100 |

Continued, values first:

| IC50 (C-MET) [nM] | IC50 (AXL) [nM] | IC50 (MER) [nM] | Structure (SMILES) |
| --- | --- | --- | --- |
| < 1000 | < 1000 | < 1000 | Nc1nccc(Oc2ccc(NC(=O)c3ccnn(-c4ccc(F)cc4)c3=O)cc2F)c1C#CCN1CCOCC1 [Example 3, N-(4-(2-amino-3-(morpholinoprop-1-ynyl)pyridine-4-yloxy)-3-fluorophenyl)-2-(4-fluorophenyl)-3-oxo-2,3-dihydropyridazine-4-carboxamide] |
| < 100 | < 1000 | < 100 | Nc1nccc(Oc2ccc(NC(=O)c3ccnn(-c4ccc(F)cc4)c3=O)cc2F)c1/C=C/C(=O)N1CCOCC1 [Example 4, (E)-N-(4-(2-amino-3-(3-morpholino-3-oxoprop-1-enyl)pyridine-4-yloxy)-3-fluorophenyl)-2-(4-fluorophenyl)-3-oxo-2,3-dihydropyridazine-4-carboxamide] |
| < 1000 | < 1000 | < 1000 | Nc1nccc(Oc2ccc(NC(=O)c3ccnn(-c4ccc(F)cc4)c3=O)cc2F)c1C#CCN1CCNCC1 [Example 6, N-(4-(2-amino-3-(3-(piperazin-1-yl)prop-1-ynyl)pyridin-4-yloxy)-3-fluorophenyl)-2-(4-fluorophenyl)-3-oxo-2,3-dihydropyridazine-4-carboxamide] |
| < 100 | < 10 | < 100 | Nc1nccc(Oc2ccc(NC(=O)c3ccnn(-c4ccc(F)cc4)c3=O)cc2F)c1C#CC(=O)N1CCC(O)CC1 [Example 9, N-(4-(2-amino-3-(3-(4-hydroxypiperidin-1-yl)-3-oxoprop-1-ynyl)pyridin-4-yloxy)-3-fluorophenyl)-2-(4-fluorophenyl)-3-oxo-2,3-dihydropyridazine-4-carboxamide] |
| < 1000 | < 100 | < 1000 | COC1CCN(C(=O)C#Cc2c(Oc3ccc(NC(=O)c4ccnn(-c5ccc(F)cc5)c4=O)cc3F)ccnc2N)CC1 [Example 10, N-(4-(2-amino-3-(3-(4-methoxypiperidin-1-yl)-3-oxoprop-1-ynyl)pyridin-4-yloxy)-3-fluorophenyl)-2-(4-fluorophenyl)-3-oxo-2,3-dihydropyridazine-4-carboxamide] |
| < 10 | < 100 | < 1000 | COCCONC(=O)C#Cc1c(Oc2ccc(NC(=O)c3ccnn(-c4ccc(F)cc4)c3=O)cc2F)ccnc1N [Example 11, N-(4-(2-amino-3-(3-(2-methoxyethoxyamino)-3-oxoprop-1-ynyl)pyridin-4-yloxy)-3-fluorophenyl)-2-(4-fluorophenyl)-3-oxo-2,3-dihydropyridazine-4-carboxamide] |
| < 100 | < 100 | < 100 | COCCON(C)C(=O)C#Cc1c(Oc2ccc(NC(=O)c3ccnn(-c4ccc(F)cc4)c3=O)cc2F)ccnc1N [Example 12, N-(4-(2-amino-3-(3-((2-methoxyethoxy)(methyl)amino)-3-oxoprop-1-ynyl)pyridin-4-yloxy)-3-fluorophenyl)-2-(4-fluorophenyl)-3-oxo-2,3-dihydropyridazine-4-carboxamide] |
| < 10 | < 10 | < 10 | COCCN1CCN(C(=O)C#Cc2c(Oc3ccc(NC(=O)c4ccnn(-c5ccc(F)cc5)c4=O)cc3F)ccnc2N)CC1 [Example 14, N-(4-(2-amino-3-(3-(4-(2-methoxyethyl)piperazin-1-yl)-3-oxoprop-1-ynyl)pyridin-4-yloxy)-3-fluorophenyl)-2-(4-fluorophenyl)-3-oxo-2,3-dihydropyridazine-4-carboxamide] |
